Tests used:
NPR1 = NPR1 transition in transgenic plant carrying 35S::NPR1-eGFP; type: in vivo, Arabidopsis thaliana; details: 35S::NPR1-eGFP transgenic plants, observed 6 hours after spraying
Protocol: NPR1 transition was determined by spraying LPE (100 nmol ml^−1 in 0.018% Silwet L-77), salicylic acid (0.3 mM in 0.018% Silwet L-77), or mock solution (0.018% Silwet L-77) to a transgenic plant carrying 35S::NPR1-eGFP, and observing, 6 hours later, the plant leaf with a laser scanning confocal microscope (Zeiss, Germany).

Pst-avrRpm1 = assay: Recovery of local immune response in pla2α mutant plant by exogenous lipid after Pst-avrRpm1 inoculation; type: in vivo, Arabidopsis thaliana; details: for complementation of impaired local immunity of pla2α mutant plants (bacterial growth assay): FIG. 3B
Protocol: Arabidopsis plant was cultivated at temperature of 22° C. and relative humidity of 60% with conditions including 16 hours of light period and 120 μmoles m^−2s^−1 of photon flux density. Because the plant defense response is age-dependent, fully mature leaves of the 4 week old plant were used for various analyses. Arabidopsis (Arabidopsis thaliana) mutants including pla2α, pla2α-II, sid2, npr1-5, rps2 and ein2 (Salk_099415, CS857021, Salk_042603, CS3724, Salk_087581, CS3071 and CS8072, respectively) were purchased from Arabidopsis Biological Resource Center, USA. Arabidopsis mutants eds1 and pad4-5 were obtained from S. A. Whitham (Iowa State University, USA) and J. E. Parker (Max Planck Institute for Plant Breeding Research, Germany), respectively. The transgenic line expressing NPR1-eGFP and NahG were obtained from X. Dong (Duke University, USA) and O. M. Park (Korea University, South Korea), respectively.
(§1) Pseudomonas syringae pv. tomato DC3000 (hereinbelow, Pst) and Pst-avrRpm1, which is avrRpm1-containing bacterial strain with no virulency, were obtained from Y. J. Kim (Korea University, South Korea). Pst-avrRpt2, which is avrRpt2-containing bacterial strain with no virulency, was obtained from J. M. Park (KRIBB, South Korea) and Pst-avrRps4, which is avrRps4-containing bacterial strain with no virulency, was obtained from R. Innes (Indiana University, USA). The bacterial strains were cultured and treated according to the method of Katagiri, et al. (Arabidopsis Book, 2002, 1:e0039).
(§2) Every phospholipid was purchased from Avanti Polar Lipids Inc. (USA), and free fatty acids (16:0, 18:0 and 18:1) were purchased from Sigma Co. (USA). The solvent was dried under nitrogen gas stream, and the lipids were suspended therein according to ultrasonication so as to have final concentration of 100 nmol ml^−1 in 0.018% silwet L-77 (or 200 nmol ml^−1 in H2O).
(§3) Based on the analysis of pla2α mutant plants compared to wild type, we hypothesized that the defect in immune responses of the pla2α mutant may be due to the failure to generate the lipid products that mediate downstream immune responses. To test this hypothesis, we supplemented pla2α mutant with LPE18:1 1.5 h after inoculation of Pst-avrRpm1. […] Very importantly, LPE by itself renders local immunity in the absence of avirulent Pst (FIGS. 3C-3E). […] In addition, disease symptoms were much reduced in LPE-sprayed leaves compared to mock-treated ones (FIG. 3E).

[1] = test system: PR1, PDF1.2, VSP1, JMT, ICS1, PAL1, ACS, LOX2; assay: Gene expression analysis (RT-PCR / real-time qPCR) in Arabidopsis leaves after treatment; type: in vivo, Arabidopsis thaliana
Protocol: Total RNA was extracted by using RNA isolator (Gibco, USA) from a sample which has been frozen with liquid nitrogen (i.e., 2 leaves per sample). Reverse transcription polymerase chain reaction (RT-PCR) and real-time quantitative polymerase chain reaction (real-time qPCR) were carried out by using gene-specific primers. For the analysis of a real-time quantitative polymerase chain reaction, Applied Biosystems 7900 Real-Time PCR SYSTEM™ was used. 2×SYBR® Green qPCR master mix was used for PCT amplification. The analyzed data were normalized first against the amount of ACTIN1 gene, and the fold increase of gene expression according to treatment was determined in comparison with a mock or non-treatment plant (1.0 fold). Reference gene as an alternative (AT1G13320) was obtained from the previous study (Hong et al., 2010, Plant Cell Physiol. 51:1694-1706). The gene-specific primers that are used in the present invention are as described in Table 1 and Table 2 below.
as §2
(§4) The mature form of the recombinant PLA2α protein was produced in Escherichia coli which is fused with Dsbc protein. According to the method described before (Ryu et al., 2005, Biochem Biophys Acta. 1736:144-151), it was purified by affinity chromatography. The protein mixture in which PLA2α and Dsbc are separated from each other or Dsbc:PLA2α fusion protein (10 μgml^−1) was treated on the leaf of pla2α mutant by syringe infiltration, each in an amount of 0.5 μg. The enzyme activity of PLA2α was determined by in vitro analysis using substrate PE for a reaction mixture containing 10 mM Ca^2+ and 0.05% Triton X-100 in 50 mM Tris-HCl (pH 8.5). The mock-treated plant was infiltrated with a buffer (50 mM Tris-HCl, pH 8.0) or Dsbc protein. For inactivation of the PLA2α activity, recombinant PLA2α was pre-treated for 30 minutes at 30° C. with 2 μM manoalide as an irreversible inhibitor.

PLA2α = target: T1, PLA2α (Arabidopsis thaliana, UniProt Q8S8N6); assay: In vitro analysis of PLA2 activity (inactivation by manoalide); type: biochemical; details: 2 μM manoalide, 30 minutes at 30° C.
T1 construct: The mature form of the recombinant PLA2α protein was produced in Escherichia coli which is fused with Dsbc protein; DsbC; made in house; host or cells: Escherichia coli
T1 sequence (Q8S8N6 21-148): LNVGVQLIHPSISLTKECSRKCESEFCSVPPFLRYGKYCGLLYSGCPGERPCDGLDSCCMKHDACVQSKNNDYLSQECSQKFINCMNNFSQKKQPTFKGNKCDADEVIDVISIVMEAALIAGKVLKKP
Protocol: as §4

[2] = suppression of aging; cited from earlier work
[3] = test system: salicylic acid, ethylene, and jasmonic acid; assay: Quantification of salicylic acid, ethylene and jasmonic acid in Arabidopsis leaf; type: in vivo, Arabidopsis thaliana
Source text: According to the method described before (Bowling et al., 1994, Plant Cell 6:1845-1857; Heck et al., 2003, Plant J. 36:342-352), salicylic acid, ethylene, and jasmonic acid were quantified from 0.5 g of a Arabidopsis leaf sample which has been sprayed with Pst-avrRpm1 suspension (1×10^8 CFU ml^−1 in 0.018% Silwet L-77) or LPE (100 nmol ml^−1 in 0.018% Silwet L-77 or 200 nmol ml^−1 in H2O).

Pst = assay: In vitro antibacterial activity against Pst; type: cell-based, Pseudomonas syringae pv. tomato DC3000
Protocol: In order to determine the antibacterial activity of PLA2α, 3 μg of recombinant PLA2α in free and mature form, which has been prepared according to the method by Ryu et al. (Biochem Biophys Acta. 2005, 1736:144-151), was added to 100 μl of a solution (Tris-HCl (50 mM, pH 8.0), 10 mM calcium chloride (CaCl2)) in which virulent Pst (5×10^5 CFU ml^1) is suspended. The bacteria sample was cultured in a weak shaking state at 28° C. for 6 hours. Thereafter, only the survived bacteria were titrated. As a mock control group, a suspension in which the bacteria are suspended in a solution having no PLA2α was used.

virulent Pst = assay: Acquirement of local immunity against virulent Pst by treatment with only LPE; type: in vivo, Arabidopsis thaliana; details: for bacterial growth of virulent Pst: compared to mock treatment
Protocol: as §1, §2, §3

O=C(O)c1ccccc1O [SA, salicylic acid, reference compound]
NPR1 translocation from the cytoplasm to the nucleus (NPR1): as did SA treatment

lysophosphatidylglycerol [LPG, reference compound]
complementation of impaired local immunity of pla2α mutant plants (bacterial growth assay) (Pst-avrRpm1): only a little

CC1=C(CC/C(C)=C/CCC2=CC[C@H](C3=CC(=O)O[C@H]3O)O[C@H]2O)C(C)(C)CCC1 [manoalide, reference compound]
PR1 gene expression by rPLA2α catalytically inactivated with manoalide ([1]; rPLA2α pre-treated with PLA2 inhibitor manoalide): failed to induce PR1 gene expression
inactivation of the PLA2α activity (PLA2α): Inactivation of the PLA2α activity caused by manoalide was confirmed

lysophosphatidylethanolamine 18:1 [LPE18:1]
biological efficacy compared with LPE 16:0 or LPE 18:0 [2]: much higher biological efficacy
JA levels ([3]; Arabidopsis leaves): did not exhibit a significant increase
ethylene levels ([3]; Arabidopsis leaves): an increase in ethylene levels
increase in SA levels ([3]; Arabidopsis leaves treated with LPE18:1): 2.5 fold
NPR1 translocation from the cytoplasm to the nucleus (NPR1): activated NPR1 by inducing its translocation from the cytoplasm to the nucleus
recovery of phenotypic defect of pla2α mutant plant (Pst-avrRpm1; FIG. 3A): recovery of phenotypic defect
complementation of impaired local immunity of pla2α mutant plants (bacterial growth assay) (Pst-avrRpm1): complemented by LPE
ability of the pla2α mutant to induce local immune responses (Pst-avrRpm1; pla2α mutant supplemented 1.5 h after inoculation of Pst-avrRpm1): restored the ability of the pla2α mutant to induce local immune responses
direct effect on bacterial growth in in vitro assays (Pst): no direct effect on bacterial growth
disease symptoms (virulent Pst; LPE-sprayed leaves compared to mock-treated): much reduced
bacterial growth of virulent Pst (virulent Pst; pla2α mutant plants): suppressed the bacterial growth
bacterial growth of virulent Pst (virulent Pst; wild type plants): suppressed the bacterial growth
ACS gene expression ([1]; Arabidopsis leaves): exhibited ACS gene expression
LOX2 gene expression ([1]; Arabidopsis leaves): did not exhibit a significant increase in LOX2 gene expression
PAL1 expression ([1]; Arabidopsis leaves): did not elevate PAL1 expression
ICS1 gene expression ([1]; Arabidopsis leaves, 6 h post-treatment): displayed ICS1 gene expression
PR1 gene expression in the sid2 mutant plants ([1]; sid2 mutant): failed to induce PR1 gene expression
expression of the PR genes PR1 and PDF1.2 ([1]; wild type leaf, LPE vs mock, absence of avirulent Pst): induced the expression of the PR genes PR1 and PDF1.2

— US10030256B2, “Method for producing lysophosphatidylethanolamine 18:1 from microorganism of Pseudomonas sp” (KOREA RESEARCH INSTITUTE OF BIOSCIENCE AND BIOTECHNOLOGY, priority 2015, dated 2018)
